pEC50: −log10 of the molar value.
Experiments:
NURR-1/RXRα = biological target: T1, NURR-1/RXRα (Homo sapiens, UniProt P19793); experiment: Transactivation test, NURR-1-Gal4/RXRα, luciferase reporter in Cos-7 cells; type: cell-based; details: for pEC50: Cos-7 cells, NURR-1-Gal4/RXRα, luciferase reporter, read-out: hNurr1_RXRaFL EC50; for Emax: COS-7, induction level relative to reference XCT0135908 at 2×10^−5 M (=100%), read-out: hNurr1_RXRaFL Emax (%)
T1 construct: expressed in transfected cells; host or cells: Cos-7 cells
T1 sequence (P19793 whole entry, the tested form may be a part): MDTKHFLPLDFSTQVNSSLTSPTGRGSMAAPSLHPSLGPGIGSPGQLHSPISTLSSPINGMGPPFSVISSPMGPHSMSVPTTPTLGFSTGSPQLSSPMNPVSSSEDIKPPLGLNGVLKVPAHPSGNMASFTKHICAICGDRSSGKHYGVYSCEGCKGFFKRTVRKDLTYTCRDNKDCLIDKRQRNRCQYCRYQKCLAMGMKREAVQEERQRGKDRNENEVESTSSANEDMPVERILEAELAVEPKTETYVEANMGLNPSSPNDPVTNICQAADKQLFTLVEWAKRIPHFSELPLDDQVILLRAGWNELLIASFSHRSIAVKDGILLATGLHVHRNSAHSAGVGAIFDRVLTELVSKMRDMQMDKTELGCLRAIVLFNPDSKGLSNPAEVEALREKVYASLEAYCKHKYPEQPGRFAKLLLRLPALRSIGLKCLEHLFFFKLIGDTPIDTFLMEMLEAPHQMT
T1 sequence (P43354 whole entry partner, the tested form may be a part): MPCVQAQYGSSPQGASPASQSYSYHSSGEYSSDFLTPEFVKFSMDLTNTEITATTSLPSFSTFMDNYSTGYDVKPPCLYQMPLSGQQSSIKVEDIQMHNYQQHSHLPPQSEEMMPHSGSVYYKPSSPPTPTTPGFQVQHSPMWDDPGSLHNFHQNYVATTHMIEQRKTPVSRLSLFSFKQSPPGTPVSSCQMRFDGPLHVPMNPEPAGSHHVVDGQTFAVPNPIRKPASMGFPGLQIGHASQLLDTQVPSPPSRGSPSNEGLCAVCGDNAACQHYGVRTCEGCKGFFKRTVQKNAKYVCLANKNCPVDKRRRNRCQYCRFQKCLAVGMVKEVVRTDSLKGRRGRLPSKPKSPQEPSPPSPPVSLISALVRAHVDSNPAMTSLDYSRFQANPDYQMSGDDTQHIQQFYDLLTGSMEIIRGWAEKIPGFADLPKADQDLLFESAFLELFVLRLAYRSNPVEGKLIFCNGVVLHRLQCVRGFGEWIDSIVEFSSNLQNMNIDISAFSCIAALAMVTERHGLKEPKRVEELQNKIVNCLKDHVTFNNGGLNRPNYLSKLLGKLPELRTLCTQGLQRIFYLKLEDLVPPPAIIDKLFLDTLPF
T1 sequence (P04386 1-147 partner limits assumed): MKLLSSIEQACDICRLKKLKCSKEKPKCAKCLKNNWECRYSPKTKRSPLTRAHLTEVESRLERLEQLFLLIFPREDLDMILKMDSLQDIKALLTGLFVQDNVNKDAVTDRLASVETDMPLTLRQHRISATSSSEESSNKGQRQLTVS
Method: (§1) The ability of the compounds according to the invention to behave as an activator of the heterodimers formed by the NURR-1 nuclear receptor and the RXR nuclear receptors was measured by means of an in vitro test. A transactivation test was used as primary selection (screening) test. Cos-7 cells were cotransfected with a plasmid expressing a chimera of the human NURR-1-Gal4 receptor, a plasmid expressing the human RXR receptor (RXRα or RXRγ receptor) and a 5Gal4pGL3-TK-Luc reporter plasmid. The transfctions were carried out using a chemical agent (Jet PEI). The transfected cells were distributed into 384-well plates and left to stand for 21 hours. At time 24 hours the culture medium was changed. The test products were added (final concentration of between 10^''4 and 3×10^-10 M) to the culture medium. After incubation overnight, the lucifeiase expression was measured after addition of SteadyGlo according to the instructions of the manufacturer (Promega). […] The induction levels (Emax) were calculated relative to the basal activity of each heterodimer.

NURR-1/RXRγ = biological target: T2, NURR-1/RXRγ (Homo sapiens, UniProt P48443); experiment: Transactivation test, NURR-1-Gal4/RXRγ, luciferase reporter in Cos-7 cells; type: cell-based; details: for pEC50: Cos-7 cells, NURR-1-Gal4/RXRγ, luciferase reporter, read-out: hNurr1_RXRgFL EC50; for Emax: COS-7, induction level relative to reference XCT0135908 at 2×10^−5 M (=100%), read-out: hNurr1_RXRgFL Emax (%)
T2 construct: expressed in transfected cells; host or cells: Cos-7 cells
T2 sequence (P48443 whole entry, the tested form may be a part): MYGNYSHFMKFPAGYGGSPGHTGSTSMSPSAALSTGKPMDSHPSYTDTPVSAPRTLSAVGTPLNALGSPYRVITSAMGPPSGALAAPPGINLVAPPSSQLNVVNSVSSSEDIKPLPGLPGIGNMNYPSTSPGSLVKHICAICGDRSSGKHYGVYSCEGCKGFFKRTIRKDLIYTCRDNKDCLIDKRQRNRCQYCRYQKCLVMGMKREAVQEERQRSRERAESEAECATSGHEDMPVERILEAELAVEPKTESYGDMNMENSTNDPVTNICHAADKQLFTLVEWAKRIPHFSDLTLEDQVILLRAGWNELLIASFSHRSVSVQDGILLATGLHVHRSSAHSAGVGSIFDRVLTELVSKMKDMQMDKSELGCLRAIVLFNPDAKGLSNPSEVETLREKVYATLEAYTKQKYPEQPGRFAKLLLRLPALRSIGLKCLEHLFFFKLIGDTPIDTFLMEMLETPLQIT
T2 sequence (P43354 whole entry partner, the tested form may be a part): as the sequence (P43354 whole entry partner, the tested form may be a part) above
T2 sequence (P04386 1-147 partner limits assumed): as the sequence (P04386 1-147 partner limits assumed) above
Method: as §1

[1] = induction level relative to reference XCT0135908 at 2×10^−5 M (=100%)

SMILES	pEC50 (NURR-1/RXRα)	hNurr1_RXRaFL Emax (%) (NURR-1/RXRα; [1])	pEC50 (NURR-1/RXRγ)	hNurr1_RXRgFL Emax (%) (NURR-1/RXRγ; [1])	Emax (NURR-1/RXRα)	Emax (NURR-1/RXRγ)
CC1COc2cc(C(F)(F)F)ccc2N1c1cccc(N2CC(C(=O)O)C2)c1 (single isomer, unassigned; isomer 2) [Example 124-2, 1-[3-[3-methyl-7-(trifluromethyl)-2,3-dihydro-1,4-benzoxazin-4-yl]phenyl]azetidine-3-carboxylic acid, isomer 2]	8.00	107%	7.77	95%		
Cc1cc(-c2cccc(OC(F)(F)F)c2)cc(N2CC(C(=O)O)C2)c1 [Example 1, 1-[3-methyl-5-[3-(trifluoromethoxy)phenyl]phenyl]azetidine-3-carboxylic acid]	7.39		7.16		122%	108%
Cc1cc(-c2cc(N(C)C)cc(C(F)(F)F)c2)cc(N2CC(C(=O)O)C2)c1 [Example 2, 1-[3-[3-(dimethylamino)-5-(trifluoromethyl)phenyl]-5-methylphenyl]azetidine-3-carboxylate acid]	7.72		7.49		119%	119%
Cc1cc(-c2cccc(C(C)C)c2)cc(N2CC(C(=O)O)C2)c1 [Example 3, 1-[3-(3-isopropylphenyl)-5-methylphenyl]azetidine-3-carboxylate acid]	7.89		7.80		101%	97%
Cc1cc(-c2cccc(N3CCCC3)c2)cc(N2CC(C(=O)O)C2)c1 [Example 4, 1-[3-methyl-5-(3-pyrrolidin-1-ylphenyl)phenyl]azetidine-3-carboxlic acid]	7.42		7.55		96%	100%
Cc1cc(-c2cccc(OC(F)F)c2)cc(N2CC(C(=O)O)C2)c1 [Example 5, 1-[3-[3-(difluoromethoxy)phenyl]-5-methylphenyl]azetidine-3-carboxylic acid]	7.33		7.03		124%	115%
Cc1cc(-c2cccc(N3CCOCC3)c2)cc(N2CC(C(=O)O)C2)c1 [Example 6, 1-[3-methyl-5-(3-morpholinophenyl)phenyl]azetidine-3-carboxylic acid]	6.73		6.34		111%	101%
Cc1cc(-c2cc(F)cc(C(F)(F)F)c2)cc(N2CC(C(=O)O)C2)c1 [Example 8, 1-[3-[3-fluoro-5-(trifluoromethyl)phenyl]-5-methluphenyl]azetidine-3-carboxylic acid]	8.30		7.92		107%	107%
Cc1cc(-c2ccc3c(c2)C(C)(C)CCC3(C)C)cc(N2CC(C(=O)O)C2)c1 [Example 9, 1-[3-methyl-5-(1,1,4,4-tetramethyltetralin-6-yl)phenyl]azetidine-3-carboxylic acid]	8.15		7.80		82%	86%
O=C(O)C1CN(c2cccc(-c3cc(F)cc(C(F)(F)F)c3)c2)C1 [Example 13, 1-[3-[3-fluoro-5-(trifluoromethyl)phenyl]phenyl]azetidine-3-carboxylic acid]	7.49		6.94		105%	102%
O=C(O)C1CN(c2cccc(-c3cccc(C(F)(F)F)c3)c2)C1 [Example 14, 1-[3-[3-(trifluoromethyl)phenyl]phenyl]azetidine-3-carboxylic acid]	7.28		6.94		99%	106%
Cc1cc(-c2cccc(C(F)(F)F)c2C)cc(N2CC(C(=O)O)C2)c1 [Example 15, 1-[3-methyl-5-[2-methyl-3-(trifluoromethyl)phenyl]phenyl]azetidine-3-carboxylic acid]	7.66		7.37		95%	85%
Cc1cc(-c2cc(Cl)cc(C(F)(F)F)c2)cc(N2CC(C(=O)O)C2)c1 [Example 16, 1-[3-[3-chloro-5-(trifluoromethyl)phenyl]-5-methylphenyl]azetidine-3-carboxylic acid]	8.70		8.40		119%	103%
Cc1cc(-c2cccc(N3CCCCC3)c2)cc(N2CC(C(=O)O)C2)c1 [Example 17, 1-[3-methyl-5-[3-(1-piperidyl)phenyl]phenyl]azetidine-carboxylic acid]	7.28		6.92		99%	84%
Cc1cc(-c2cc(F)cc(Cl)c2)cc(N2CC(C(=O)O)C2)c1 [Example 18, 1-[3-(3-chloro-5-fluorophenyl)-5-methylphenyl]azetidine-3-carboxylic acid]	7.17		6.80		95%	93%
Cc1cc(-c2cccc(C3=NC(C)(C)CO3)c2)cc(N2CC(C(=O)O)C2)c1 [Example 19, 1-[3-[3-(4,4-dimethyl-5H-oxazol-2-yl)phenyl]-5-methylphenyl]azetidine-3-carboxylic acid]	5.84		5.75		97%	71%
CC(C)COc1ccc(C(F)(F)F)cc1-c1cccc(N2CC(C(=O)O)C2)c1 [Example 94, 1-[3-[2-isobutoxy-5-(trifluoromethyl)phenyl]phenyl]azetidine-3-carboxylic acid]	7.74				48%	
COc1ccccc1C(C)Oc1ccc(C(F)(F)F)cc1-c1cccc(N2CC(C(=O)O)C2)c1 (stereo not drawn) [Example 95, 1-[3-[2-[1-(2-methoxyphenyl)ethoxy]-5-(triflurooemethyl)phenyl]phenyl]azetidine-3-carboxylic acid]	7.70				46%	
CN1CC2(CCC2)Oc2cc(C(C)(C)C)cc(-c3cccc(N4CC(C(=O)O)C4)c3)c21 [Example 213, tert-butylammonium 1-[3-(7-tert-butyl-4-methyl-spiro[3H-1,4-benzoxazine-2,1′-cyclobutane]-5-yl)phenyl]azetidine-3-carboxylate]	9.10				77%	
CC1(C)CN(CC(F)(F)F)c2c(cc(C(F)(F)F)cc2-c2cccc(N3CC(C(=O)O)C3)c2)O1 [Example 215, tert-butylammonium 1-[3-[2,2-dimethyl-4 (2,2,2-trifluoromethyl)-7-(trifluoromethyl)-3H-1,4-benzoxazin-5-yl]phenyl]azetidine-3-carboxylate]	9.00				61%	
CC(C)c1ccc2c(c1)CC(C)(C)CN2c1cccc(N2CC(C(=O)O)C2)c1 [Example 245, tert-butylammonium 1-[3-(6-isopropyl-3,3-dimethyl-2,4-dihydroquinolin-1-yl)phenyl]azetidine-3-carboxylate]	6.94				89%	
CC1(C)Oc2cc(C#N)ccc2N(c2cccc(N3CC(C(=O)O)C3)c2)C1=O [Example 254, tert-butylammonium 1-[3-(7-cyano-2,2-dimethyl-3-oxo-1,4-benzoxazin-4-yl)phenyl]azetidine-3-carboxylate]	5.53				70%	
CC1(C)CC(c2cccc(N3CC(C(=O)O)C3)c2)c2ccc(C(F)(F)F)cc2O1 (stereo not drawn) [Example 270, tert-butylammonium 1-[3-[2,2-dimethyl-7-(trifluoromethyl)chroman-4-yl]phenyl]azetidine-3-carboxylate]	8.30				99%	

Reference: patent US20170066717A1, “NEW PHENYLAZETIDINECARBOXYLATE OR -CARBOXAMIDE COMPOUNDS” (INVENTIVA, priority 2014, published 2017)
